The results in this text go back to US7202243B2, “Substituted imidazotriazines” (Bayer HealthCare AG, priority 2002, dated 2007).

The target of the experiment is T1, PDE 10A (Homo sapiens, UniProt Q9Y233).
T1 construct: is expressed recombinantly in full length in Sf9 insect cells; made in house; host or cells: Sf9 insect cells, Bac-to-Bac baculovirus expression system
In words: Inhibition of PDE 10A (in vitro enzyme inhibition test, [3H]cAMP scintillation proximity assay). The experiment is classed as biochemical. The conditions noted are these: recombinant full-length PDE 10A expressed in Sf9 insect cells; substrate [5',8-3H] cAMP; 60 min at 20° C. As to the method: 48 h after infection, the cells are harvested and suspended in 20 ml (per 1 l of culture) of lysis buffer (50 mM tris HCl, pH 7.4, 50 mM NaCl, 1 mM MgCl2, 1.5 mM EDTA, 10% glycerol plus 20 μl of Protease Inhibitor Cocktail Set III [CalBiochem, La Jolla, Calif. USA]). The cells are treated with ultrasound at 4° C. for 1 minute and subsequently centrifuged at 10 000 rpm for 30 minutes at 4° C. The supernatant (PDE 10A preparation) was collected and stored at −20° C.
The test substances are dissolved in 100% DMSO for the determination of their in vitro action on PDE 10A and serially diluted. […] 2 μl of the diluted substance solutions in each case are introduced into the hollows of microtiter plates (Isoplate; Wallac Inc., Atlanta, Ga.). Subsequently, 50 μl of a dilution of the PDE 10A preparation described above are added. The dilution of the PDE 10A preparation is chosen such that during the later incubation less than 70% of the substrate is reacted (typical dilution: 1:10 000; dilution buffer: 50 mM tris/HCl pH 7.5, 8.3 mM MgCl2, 1.7 mM EDTA, 0.2% BSA). The substrate, [5′,8-^3H] adenosine 3′,5′-cyclic phosphate (1 μCi/μl; Amersham Pharmacia Biotech., Piscataway, N.J.) is diluted 1:2000 with assay buffer (50 mM tris/HCl pH 7.5, 8.3 mM MgCl2, 1.7 mM EDTA) to a concentration of 0.0005 μCi/μl. The enzyme reaction is finally started by addition of 50 μl (0.025 μCi) of the diluted substrate. The test batches are incubated for 60 min at 20° C. and the reaction is stopped by addition of 25 μl of a suspension containing 18 mg/ml of Yttrium Scintillation Proximity Beads (Amersham Pharmacia Biotech., Piscataway, N.J.). The microtiter plates are sealed using a film and allowed to stand for 60 min at 20° C. Subsequently, the plates are measured for 30 s per hollow in a Microbeta scintillation counter (Wallac Inc., Atlanta, Ga.). IC50 values are determined by means of graphic plotting of the substance concentration against the percentage inhibition.
Background: In a scintillation proximity assay essentially only radioactivity close to the scintillant gives light.

By pIC50 is commonly meant −log10 of the IC50, conventionally taken in molar units.

SMILES strings stand for the structures. pIC50: −log10 of the molar value.

T1 sequence (Q9Y233 1-779 isoform Q9Y233-1): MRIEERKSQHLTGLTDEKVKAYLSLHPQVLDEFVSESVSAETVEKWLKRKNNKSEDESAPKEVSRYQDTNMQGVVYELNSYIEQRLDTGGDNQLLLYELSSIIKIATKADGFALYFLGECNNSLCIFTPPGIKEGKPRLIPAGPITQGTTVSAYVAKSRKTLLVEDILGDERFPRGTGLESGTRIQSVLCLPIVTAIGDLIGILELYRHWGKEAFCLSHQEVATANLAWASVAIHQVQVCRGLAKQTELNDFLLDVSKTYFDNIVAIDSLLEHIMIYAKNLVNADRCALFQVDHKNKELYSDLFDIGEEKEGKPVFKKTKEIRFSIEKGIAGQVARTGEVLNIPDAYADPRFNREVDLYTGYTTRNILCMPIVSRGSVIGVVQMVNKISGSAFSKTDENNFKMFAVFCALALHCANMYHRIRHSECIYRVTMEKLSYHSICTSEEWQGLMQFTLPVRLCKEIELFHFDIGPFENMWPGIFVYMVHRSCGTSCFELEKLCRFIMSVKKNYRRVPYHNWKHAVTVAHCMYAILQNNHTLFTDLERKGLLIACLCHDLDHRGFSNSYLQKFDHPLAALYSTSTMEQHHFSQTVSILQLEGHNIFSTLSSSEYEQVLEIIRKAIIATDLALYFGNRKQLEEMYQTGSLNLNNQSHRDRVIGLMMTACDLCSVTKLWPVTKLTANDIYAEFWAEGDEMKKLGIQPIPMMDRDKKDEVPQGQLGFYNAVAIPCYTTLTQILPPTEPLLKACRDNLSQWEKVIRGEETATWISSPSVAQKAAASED

In the case of `COc1cc(Oc2nc(-c3ccc(NC(C)=O)cc3)nn3c(C)nc(C)c23)cc(OC)c1OC` [Example 2, N-{4-[5,7-Dimethyl-4-(3,4,5-trimethoxyphenoxy)imidazo[5,1-f][1,2,4]triazin-2-yl]-phenyl}acetamide], the negative logarithm of the IC50 (pIC50) is 7.43.
The same measure for `COc1cc(Oc2nc(-c3cccc(NC(C)=O)c3)nn3c(C)nc(C)c23)cc(OC)c1OC` [Example 9, N-{3-[5,7-Dimethyl-4-(3,4,5-trimethoxyphenoxy)imidazo[5,1-f][1,2,4]triazin-2-yl]-phenyl}acetamide]: 7.52; for `COc1cc(Nc2nc(-c3cccc(NS(C)(=O)=O)c3)nn3c(C)nc(C)c23)cc(OC)c1OC` [Example 11, N-(3-{5,7-Dimethyl-4-[(3,4,5-trimethoxyphenyl)amino]imidazo[5,1-f][1,2,4]triazin-2-yl}phenyl)methanesulfonamide]: 7.37; for `COc1cc(Nc2nc(-c3ccc(NC=O)cc3)nn3c(C)nc(C)c23)cc(OC)c1OC` [Example 12, 4-{5,7-Dimethyl-4-[(3,4,5-trimethoxyphenyl)amino]imidazo[5,1-f][1,2,4]triazin-2-yl}phenylformamide]: 8.10.
As to `COc1cc(Nc2nc(-c3ccc(NC(=O)CO)cc3)nn3c(C)nc(C)c23)cc(OC)c1OC` [Example 15, N-(4-{5,7-Dimethyl-4-[(3,4,5-trimethoxyphenyl)amino]imidazo[5,1-f][1,2,4]triazin-2-yl}phenyl)-2-hydroxyacetamide], the pIC50 is 8.22.
